In patent US20120258938A1, “Enzymatic Production or Chemical Synthesis and Uses for 5,7-Dienes and UVB Conversion Products Thereof” (priority 2008, published 2012):

Assays:
Human dermal fibroblasts = experiment: TGF-b1 induced collagen protein production by dermal fibroblasts; assay type: cell-based; conditions: collagenase sensitive protein; for TGF-b1 induced collagen protein production: [3H]-proline
Protocol: Human dermal fibroblasts grown from explant skin cultures at less than 10 subpassages were plated at 5×10^4 cells per well in 24 well Costar tissue culture plates and were grown to confluency. Complete MEM was then changed to serum free Complete MEM without non-essential amino acids. After 24 hours, culture medium was changed (450 μl/well) to the same and secosteroids listed in Table 14 were added in 10 μl absolute alcohol (ETOH) to a final concentration of 10^−9 and M, 3 replicate wells each. Vehicle control wells (n=6) contained 10 μl (ETOH). After 2 hour pre-incubation, hr TGF-b1 (R and D systems) was added to each well except ETOH wells at a final concentration of 5 ng/ml. After 48 hours of culture, plate wells were paused with 1μ Cl ^3[H]-proline. After 24 hours, culture supernatants were harvested and collagenase sensitive protein was determined as previously described (44).

HaCaT keratinocytes [1] = experiment: Forward and side scatter (cell size, granularity) of HaCaT keratinocytes; assay type: cell-based, human; conditions: for Forward scatter [mean signal intensity] / Side scatter [mean signal intensity]: HaCaT keratinocytes, 10^−8 M, 24 h; for Forward scatter [mean signal intensity]: reflects cell size; for Side scatter [mean signal intensity]: reflects granularity; for forward and side scatter: result in words (Table 13)
Protocol: The FL-1 signal (collected from 10,000 events in side scatter/forward scatter window after debris exclusion) was recorded. Forward (relative to cell size) and side (relative to cell granularity) scatter histograms were generated and mean signal intensity was recorded. FL-1 signal values are presented as dMFI (difference between mean fluorescence intensity of sample stained with specific and isotype control antibody). Scatter signal values are presented as MSI (mean signal intensity). Signal intensities were analyzed with Cell Quest (BD Biosciences, San Diego, Calif.) and graphical representations of the FL-1 signal were prepared with WinMdi 2.8 (shareware from Joseph Trotter, The Scripps Research Institute, San Diego, Calif.).

involucrin = experiment: Involucrin protein expression in HaCaT (flow cytometry, microscopy); assay type: cell-based, human; conditions: 24 h; for expression of involucrin: 10 nM; for increase in the expression of involucrin: flow cytometry
CYP24 promoter = experiment: CYP24-Luc reporter in HaCaT keratinocytes; assay type: cell-based, human
From the text: Construct CYP24-Luc and VDRE-Luc constructs were a generous gift from Dr. Tai Cheng, Ph.D. (Boston University Medical Campus, Core Lab Director). It was originally developed by Vaisanen et al. (27). PLuc and NFκB-Luc construct was described previously (28-29). huVDR construct was a generous gift from Dr. D. Bikle. HaCaT keratinocytes were transfected with NFκB-Luc, CYP-24-Luc, VDRE-Luc and hVDR constructs using Lipofectamine Plus (Invitrogen, Carlsbad, Calif.) in DMEM medium with firefly luciferase reporter gene plasmid and with phRL-TK.
HaCaT keratinocytes were transfected with NFκB-Luc construct using Lipofectamine Plus (Invitrogen, Carlsbad, Calif.) in DMEM medium with firefly luciferase reporter gene plasmid and with phRL-TK (expresses Renilla luciferase and serves as normalization control; Promega, Madison, Wis.). After transfection cells were incubated for 24 h in complete medium, and then after change to fresh media treated with drug or vehicle (ethanol) at the concentration of 10 nM for 30 minutes, 1 h, 4 h, 16 h and 24 h. The firefly luciferase and Renilla luciferase signals were recorded with a TD-20/20 luminometer (Turner Designs, Sunnyvale, Calif.); background luminescence was subtracted and the resulting promoter specific firefly signal was divided by the Renilla signal (proportional to the number of transfected cells). The values obtained were divided by the mean of control (untreated) cells.

HaCaT keratinocytes [2] = experiment: [3H]-thymidine DNA synthesis in HaCaT keratinocytes; assay type: cell-based, human
In short: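 HaCaT cells in DMEM with 5% charcoal-treated FBS received vehicle (ethanol) or secosteroids for 48 hours, with [3H]-thymidine at 1 μCi/mL for the final 12 hours. Incorporated radioactivity from trypsin-harvested cells on glass fiber filters was counted by beta counter.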

[3] = HaCaT, 20-hydroxycholecalciferol at 0.1 nM

| SMILES | TGF-b1 induced collagen protein production (Human dermal fibroblasts) | Forward scatter [mean signal intensity] (HaCaT keratinocytes [1]) | Side scatter [mean signal intensity] (HaCaT keratinocytes [1]) | forward and side scatter (HaCaT keratinocytes [1]; HaCaT) | side scatter, mean signal intensity (MSI) (HaCaT keratinocytes [1]; [3]) | expression of involucrin (involucrin) | increase in the expression of involucrin (involucrin; 10^−8 M) | CYP24 promoter activity (CYP24 promoter) | forward scatter, mean signal intensity (MSI) (HaCaT keratinocytes [1]; [3]) | DNA synthesis ([3H]-thymidine assay) (HaCaT keratinocytes [2]; 48 h, 10^−8 and 10^−7 M) | keratinocyte proliferation compared with 1α,25-dihydroxycholecalciferol (HaCaT keratinocytes [2]; HaCaT, 48 h) | involucrin dMFI (involucrin; 10^−8 M) | decrease in DNA synthesis (HaCaT keratinocytes [2]; 0.1 nM) [%] | decrease in DNA synthesis (HaCaT keratinocytes [2]; 10 nM) | Collagen CPM/Well (mean ± SEM) × 10^−5 FB (Human dermal fibroblasts; hrTGF-b1 5 ng/ml, secosteroids at 10^−10M, 3[H]-proline) [CPM/Well × 10^−5 FB] | proliferation (DNA synthesis) (HaCaT keratinocytes [2]; HaCaT, 48 hr) |
| --- | --- | --- | --- | --- | --- | --- | --- | --- | --- | --- | --- | --- | --- | --- | --- | --- |
| C=C1/C(=C\C=C2/CCC[C@]3(C)[C@@H]([C@H](C)CCCC(C)(C)O)CC[C@@H]23)C[C@@H](O)C[C@@H]1O [1α,25-dihydroxycholecalciferol, (5Z,7E)-9,10-secocholesta-5,7,10(19)-triene-1α,3β,25-triol, reference compound] | inhibited TGF-b1 induced collagen protein production | 122.12 ± 23.98 | 143.46 ± 15.76 | only the effect on forward scatter was statistically significant | 219±4 | increase of expression of involucrin | negligible | stimulated transcriptional activity of CYP24 promoter |  |  |  |  |  |  |  |  |
| C=C1CC[C@H](O)C/C1=C/C=C1\CCC[C@@]2(C)[C@H]1CC[C@@H]2[C@@](C)(O)CCCC(C)C [20(OH)D3, (5Z,7E)-9,10-secocholesta-5,7,10(19)-triene-3β,20-diol] | inhibited TGF-b1 induced collagen protein production |  |  |  | 210±6 |  | ~3.7 fold | failed to stimulate the CYP24 promoter activity | 251±2 | inhibited DNA synthesis | inhibit keratinocyte proliferation more potently than the control compound | 71±8 |  |  |  |  |
| C=C1CC[C@H](O)C/C1=C/C=C1\CCC[C@]2(C)[C@@H](C(C)(O)CC(O)CC(C)C)CC[C@@H]12 (stereo partly drawn) [20,23-dihydroxycholecalciferol, (5Z,7E)-9,10-secocholesta-5,7,10(19)-triene-3β,20,23-triol] |  | 87.74 ± 29.18 | 154.4 ± 30 | increased significantly both forward and side scatter |  | stimulated expression of involucrin gene |  | stimulated activity of CYP24 promoter poorly |  |  | inhibit keratinocyte proliferation more potently than the control compound |  | 30 | approximately 50% |  |  |
| C=C1CC[C@H](O)C/C1=C/C=C1\CCC[C@]2(C)[C@@H](C(C)=O)CC[C@@H]12 [pD3, (5Z,7E)-3β-hydroxy-9,10-secopregna-5,7,10(19)-trien-20-one] | inhibited TGF-b1 induced collagen protein production |  |  |  |  |  |  |  |  |  |  |  |  |  | 181 ± 14 | inhibits proliferation |
